# Assay results taken from patent US20180116993A1, “MODULATORS OF FARNESOID X RECEPTOR AND METHODS FOR THE USE THEREOF” (XIAMEN UNIVERSITY, priority 2015, published 2018).
# Like-named read-outs stand apart in the source and are kept apart here. Marks after values point to notes of the source that are not given here.
# What was measured:
# [1] = target: T1, FXR ligand binding domain (LBD) (Homo sapiens, UniProt Q96RI1); experiment: AlphaScreen assay: FXR LBD recruitment of coregulator peptide motifs (SRC2-3, SRC1-2); type: biochemical
# T1 construct: made in house
# T1 sequence (Q96RI1 262-486 limits assumed): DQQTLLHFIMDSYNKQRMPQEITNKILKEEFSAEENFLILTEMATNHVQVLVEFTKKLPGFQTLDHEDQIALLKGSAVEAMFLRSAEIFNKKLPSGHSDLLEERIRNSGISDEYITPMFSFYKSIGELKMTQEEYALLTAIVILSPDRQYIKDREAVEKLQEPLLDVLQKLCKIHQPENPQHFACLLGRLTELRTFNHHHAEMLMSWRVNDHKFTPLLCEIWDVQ
# [2] = target: T2, full-length FXR (Homo sapiens, UniProt Q96RI1); experiment: Cell-based FXR transactivation, EcRE luciferase reporter in COS-7 cells; settings: for Cell-based FXR transactivation Fold changes by 5 μM compound: positive: induction, minus: repression
# T2 construct: The cells were co-transfected with plasmids encoding full-length FXR and the cognate luciferase reporter EcRE-Luc; expressed in transfected cells; host or cells: COS-7
# T2 sequence (Q96RI1 1-486): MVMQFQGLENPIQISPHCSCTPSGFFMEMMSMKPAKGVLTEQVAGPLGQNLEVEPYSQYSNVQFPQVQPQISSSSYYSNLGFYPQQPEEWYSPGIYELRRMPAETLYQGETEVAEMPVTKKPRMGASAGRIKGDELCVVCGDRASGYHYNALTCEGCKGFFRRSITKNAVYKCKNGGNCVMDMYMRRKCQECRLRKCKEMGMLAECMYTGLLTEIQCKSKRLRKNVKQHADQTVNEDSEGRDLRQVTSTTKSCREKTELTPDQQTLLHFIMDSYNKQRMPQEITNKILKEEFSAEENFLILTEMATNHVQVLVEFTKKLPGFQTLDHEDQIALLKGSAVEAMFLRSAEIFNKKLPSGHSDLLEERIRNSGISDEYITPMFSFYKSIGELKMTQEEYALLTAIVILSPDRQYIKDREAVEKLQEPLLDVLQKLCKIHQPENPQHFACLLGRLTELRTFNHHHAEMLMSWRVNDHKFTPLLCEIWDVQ
# Outline: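 COS-7 cells were transiently cotransfected with full-length FXR, EcRE-Luc reporter and a renilla control. Ligands were added 5 h after transfection, and cells were harvested 24 h later. Firefly luciferase was normalized to renilla in a dual-luciferase read-out.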
# [3] = tested on: human colorectal adenocarcinoma HCT15 cells; experiment: MTT cell viability assay, HCT15; type: cell-based; settings: 48 h, read-out: Cell viability as a percentage of the cells treated with DMSO, HCT15; for viability at 20 µM: HCT-15, 20 uM; for viability at 40 µM: HCT-15, 40 uM
# Outline: (§1)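 DMEM + 10% FBS culture; compound 20 uM or 40 uM; MTT read-out; viability as % of DMSO control.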
# [4] = tested on: RA-resistant human colon cancer HCT116 cells; experiment: MTT cell viability assay, HCT116; type: cell-based; settings: 48 h, read-out: Cell viability as a percentage of the cells treated with DMSO, HCT116; for viability at 20 µM: HCT-116, 20 uM; for viability at 40 µM: HCT-116, 40 uM
# Outline: as §1
# [5] = tested on: human hepatoma HepG2 cells; experiment: MTT cell viability assay, HepG2; type: cell-based; settings: 48 h, read-out: Cell viability as a percentage of the cells treated with DMSO, HepG2
# Outline: as §1
# [6] = tested on: human cervical carcinoma Hela cells; experiment: MTT cell viability assay, Hela; type: cell-based; settings: 48 h, read-out: Cell viability as a percentage of the cells treated with DMSO, Hela
# Outline: as §1
# [7] = tested on: human breast cancer MCF7 cells; experiment: MTT cell viability assay, MCF-7; type: cell-based; settings: 48 h, read-out: Cell viability as a percentage of the cells treated with DMSO, MCF-7
# Outline: as §1
# [8] = tested on: db/db mice; experiment: Hepatic triglyceride, liver histology, serum ALT and ALP in high-fat diet fed db/db mice; type: in vivo, mouse; settings: for Hepatic triglyceride (mM/g): vehicle 148 ± 14; for Serum ALP (U/L): vehicle 129 ± 15
# Outline: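 High-fat diet fed db/db mice aged 8-10 weeks dosed 10 mg/kg compound once daily for 10 days. Liver sections stained with H&E and 0.3% oil red O; hepatic triglyceride measured by tissue assay kit; serum ALP and ALT activities measured by kit.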
# [9] = SRC1-2 peptide, Table 2, read-out: EC50 (μM) of FXR binding by AlphaScreen assay recruit SRC1-2
# [10] = SRC2-3 peptide, Table 2, read-out: EC50 (μM) of FXR binding by AlphaScreen assay recruit SRC2-3
# [11] = EcRE luciferase reporter, Table 2
# [12] = 10 mg/kg for 10 days, vehicle 377 ± 48, Table 15
# [13] = 10 mg/kg once daily for 10 days
# [14] = 10 mg/kg once daily for 10 days, vehicle 377 ± 48, Table 17
SMILES,"EC50 [1, 9] [µM]","EC50 [1, 10] [µM]","Cell-based FXR transactivation Fold changes by 5 μM compound ([2]; 5 μM compound, Table 2)","EC50 [2, 11] [nM]",viability at 20 µM [3] [%],viability at 40 µM [3] [%],viability at 20 µM [4] [%],viability at 40 µM [4] [%],viability at 20 µM [5] [%],viability at 40 µM [5] [%],viability at 20 µM [6] [%],viability at 40 µM [6] [%],viability at 20 µM [7] [%],viability at 40 µM [7] [%],Hepatic triglyceride (mM/g) ([8]; 10 mg/kg for 10 days),"Serum ALT (U/L) [8, 12]",also measured
"CC1(C)C2CCC1(C)C(OC(=O)c1ccncc1)C2 (stereo not drawn) [XD-6, 1,7,7-trimethyl-bicyclo[2.2.1]-heptan-2-yl isonicotinate]",1 to 10,1 to 10,>10,1000 to 10000,57 ± 2,42 ± 3,61 ± 1,45 ± 2,99 ± 1,70 ± 2,100 ± 1,76 ± 1,100 ± 8,61,90 ± 11^b mM/g,101 ± 28 ^a U/L,–
"O=C(OC1CCCCCCCCCCC1)c1ccc(O)cc1 [XD-11, cyclododecyl 4-hydroxybenzoate]",1 to 10,1 to 10,4,1000 to 10000,89 ± 2,78 ± 3,92 ± 2,70 ± 7,100 ± 1,97 ± 1,100 ± 3,100 ± 2,100 ± 7,100 ± 2,102 ± 13 ^a mM/g,106 ± 26 ^a U/L,–
"Nc1ccc(C(=O)OC2CCCCCCC2)cc1 [XD-16, cyclooctyl 4-aminobenzoate]",< 1,< 1,5,< 1000,–,–,–,–,–,–,–,–,–,–,81 ± 23 ^a mM/g,104 ± 33 ^a U/L,"Serum ALP (U/L) [8, 13]: 88 ± 10^b U/L; Serum ALT (U/L) [8, 14]: 104 ± 33^a U/L"
"CC1(C)C2CCC1(C)C(OC(=O)c1ccc(=O)[nH]c1)C2 (stereo not drawn) [XD-8, 1,7,7-trimethyl-bicyclo[2.2.1]-heptan-2-yl 6-oxo-1,6-dihydropyridine-3-carboxylate]",1 to 10,1 to 10,4,1000 to 10000,78 ± 4,60 ± 4,92 ± 7,60 ± 3,90,64 ± 3,97,71 ± 3,94 ± 10,75,102 ± 8 ^c mM/g,115 ± 31 ^a U/L,–
"COc1cc(C(=O)OC2CCC3CCCCC3C2)ccc1O (stereo not drawn) [XD-30, decahydro-naphthalen-2-yl 4-hydroxy-3-methoxybenzoate]",< 0.5,< 0.5,3,< 1000,96 ± 2,77 ± 2,100 ± 2,100 ± 2,100 ± 2,94 ± 2,81,79 ± 2,100 ± 2,92 ± 2,108 ± 8 ^c mM/g,92 ± 27 ^a U/L,"Serum ALP (U/L) [8, 13]: 64 ± 14^a U/L; Serum ALT (U/L) [8, 14]: 92 ± 27^a U/L"
"O=C(OC1CCC2CCCCC2C1)c1ccc(O)cc1 (stereo not drawn) [XD-28, decahydro-naphthalen-2-yl 4-hydroxy-benzoate]",< 0.5,< 0.5,3,< 1000,99 ± 4,81 ± 4,100 ± 4,88 ± 4,100 ± 4,96 ± 4,94 ± 4,92 ± 4,100 ± 4,98 ± 4,87 ± 10 ^c mM/g,103 ± 17^b U/L,–
"CC1(C)C2CCC1(C)C(OC(=O)c1ccc(=O)oc1)C2 (stereo not drawn) [XD-9, 1,7,7-trimethyl-bicyclo[2.2.1]-heptan-2-yl 6-oxo-6H-pyran-3-carboxylate]",1 to 10,1 to 10,4,1000 to 10000,49 ± 2,42 ± 3,58 ± 2,25 ± 2,90 ± 3,64 ± 3,80 ± 3,59 ± 5,72 ± 6,31,93 ± 14 ^a mM/g,121 ± 33 ^a U/L,–
CC1(C)[C@@H]2CC[C@@]1(C)[C@@H](OC(=O)c1ccc(O)cc1)C2 [Tschimgine],–,–,–,–,97 ± 6,31 ± 2,93 ± 4,25 ± 5,97,30 ± 3,94,31 ± 4,93,32,–,–,"EC50 ([1]; SRC1-2 peptide, Table 1, read-out: EC50 (μM) of FXR binding by AlphaScreen assay recruit SRC1-2): < 1 µM; EC50 ([1]; SRC2-3 peptide, Table 1, read-out: EC50 (μM) of FXR binding by AlphaScreen assay recruit SRC2-3): < 1 µM; fold induction at 5 µM ([2]; 5 μM compound, EcRE luciferase reporter, Table 1): > 10; EC50 ([2]; EcRE luciferase reporter, Table 1): < 1000 nM"
